One molecule from publication PMC8413904 (Pharmacology Research & Perspectives, 2021) can be followed below.

In one experiment the target is GluN1/2D (UniProt O15399+P35439). The experiment in a line: Current–voltage (I–V) relationship, TEVC in xenopus oocytes.
Experiment [1] has as its system cultured rat brain cortical neurons. The experiment in a line: Dynamic calcium assay (Fluo‐8). The class given is cell-based. How it is done: (§1) All animal experimental procedures and housing have been approved by the Institutional Animal Care and Use Committee (IACUC) protocol #18‐015 of Virginia Tech. Embryonic day 18 (E18) rat brain tissue samples were obtained from adult pregnant SD rats. Rat brain primary cortical, striatal, and cerebellar neurons were cultured on poly‐d‐lysine coated 96‐well plates for 14 days in vitro (DIV14) before using for the experiments. Primary rat neuron culture was performed as previously published.[44] Briefly, each well of a 96 well plate was loaded with 50 000 cells and grown in 200 µl neurobasal media supplemented with B27, glutamax, penicillin, streptomycin. One hundred microliters of media was replaced with fresh media once in 4 days. Eight to thirteen fetus were obtained from each pregnant rat. Brain tissue from these fetus were pooled to obtain the neurons. Cortical, striatal, and cerebellar neuron assays were carried out at different time points.
Dynamic calcium assay was carried out, using Fluo‐8 no‐wash kit (abcam, ab112129), as per the manufacturer's instructions with minor modifications to fit with experimental necessities. On DIV14, all 200 μl of media was removed and replaced it with 100 μl of HBSS and 100 μl of Fluo‐8 dye loading solution. The plates were incubated at 37°C for 30 min and at room temperature for 30 min. […] Costar 96‐well clear bottom black side plates were read from the bottom, nine times, with 60 s intervals between each read. Temperature was set at 37°C and reading speed was 100 ms.

The target in a further experiment is GluN1/2A (UniProt P35439+Q12879). Kind of experiment: Current–voltage (I–V) relationship, TEVC in xenopus oocytes.
GluN1/2A, sequence (Q12879 23-1464, other chains not shown): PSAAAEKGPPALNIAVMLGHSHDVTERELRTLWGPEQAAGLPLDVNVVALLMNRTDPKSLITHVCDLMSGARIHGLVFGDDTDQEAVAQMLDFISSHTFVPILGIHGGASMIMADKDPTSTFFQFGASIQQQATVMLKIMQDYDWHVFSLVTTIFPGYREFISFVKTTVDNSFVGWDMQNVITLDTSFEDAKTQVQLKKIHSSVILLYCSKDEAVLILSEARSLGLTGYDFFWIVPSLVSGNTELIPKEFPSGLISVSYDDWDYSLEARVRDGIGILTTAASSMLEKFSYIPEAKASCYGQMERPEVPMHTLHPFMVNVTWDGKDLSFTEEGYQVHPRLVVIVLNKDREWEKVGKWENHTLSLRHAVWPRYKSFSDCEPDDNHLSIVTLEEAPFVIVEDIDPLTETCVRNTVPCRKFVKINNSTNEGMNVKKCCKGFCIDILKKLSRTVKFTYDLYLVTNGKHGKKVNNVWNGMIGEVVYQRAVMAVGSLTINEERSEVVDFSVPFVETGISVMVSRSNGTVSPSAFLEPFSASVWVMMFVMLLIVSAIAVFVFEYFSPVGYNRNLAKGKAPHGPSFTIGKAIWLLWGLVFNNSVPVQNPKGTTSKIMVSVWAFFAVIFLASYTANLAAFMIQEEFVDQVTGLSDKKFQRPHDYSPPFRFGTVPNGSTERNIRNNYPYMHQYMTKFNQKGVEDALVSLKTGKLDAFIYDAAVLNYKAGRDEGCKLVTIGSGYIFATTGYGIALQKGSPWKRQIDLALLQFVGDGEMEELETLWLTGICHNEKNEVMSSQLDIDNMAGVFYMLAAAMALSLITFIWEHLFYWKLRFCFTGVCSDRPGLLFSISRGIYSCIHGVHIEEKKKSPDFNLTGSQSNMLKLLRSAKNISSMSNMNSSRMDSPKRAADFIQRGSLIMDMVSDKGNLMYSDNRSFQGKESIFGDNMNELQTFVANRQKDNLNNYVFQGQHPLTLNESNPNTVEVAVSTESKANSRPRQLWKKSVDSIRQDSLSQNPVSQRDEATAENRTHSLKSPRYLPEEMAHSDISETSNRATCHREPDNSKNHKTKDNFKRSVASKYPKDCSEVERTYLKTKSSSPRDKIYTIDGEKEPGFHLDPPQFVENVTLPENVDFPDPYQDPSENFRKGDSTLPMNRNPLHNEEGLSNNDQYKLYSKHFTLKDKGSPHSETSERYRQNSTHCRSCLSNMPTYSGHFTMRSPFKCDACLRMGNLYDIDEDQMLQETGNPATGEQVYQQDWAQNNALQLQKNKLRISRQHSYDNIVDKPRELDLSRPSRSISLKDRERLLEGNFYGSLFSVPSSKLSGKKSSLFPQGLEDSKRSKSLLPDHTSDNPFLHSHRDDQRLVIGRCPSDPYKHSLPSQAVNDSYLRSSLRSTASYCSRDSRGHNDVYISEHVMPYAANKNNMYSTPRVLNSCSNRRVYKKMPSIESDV
The subject of experiment [2] is cultured rat brain cortical neurons. Kind of experiment: Na^+ assay (CoroNa green‐AM). The class given is cell-based. Here is the method:
as §1
For Na^+ assay, DIV14 neurons were washed with HBSS and treated with freshly prepared CoroNa green‐AM dye (ThermoFisher, cat # C36676) and incubated for 45 min in 37°C. […] RFU values of background control and treatments were plotted to identify the effect of CNS4 on NMDA‐induced Na^+ flux in the neurons.

Setting [3] is: 100 µM CNS4, 100 µM glutamate + 100 µM glycine, −90 to +30 mv.

GluN1/2D, sequence (O15399 28-1336, other chains not shown): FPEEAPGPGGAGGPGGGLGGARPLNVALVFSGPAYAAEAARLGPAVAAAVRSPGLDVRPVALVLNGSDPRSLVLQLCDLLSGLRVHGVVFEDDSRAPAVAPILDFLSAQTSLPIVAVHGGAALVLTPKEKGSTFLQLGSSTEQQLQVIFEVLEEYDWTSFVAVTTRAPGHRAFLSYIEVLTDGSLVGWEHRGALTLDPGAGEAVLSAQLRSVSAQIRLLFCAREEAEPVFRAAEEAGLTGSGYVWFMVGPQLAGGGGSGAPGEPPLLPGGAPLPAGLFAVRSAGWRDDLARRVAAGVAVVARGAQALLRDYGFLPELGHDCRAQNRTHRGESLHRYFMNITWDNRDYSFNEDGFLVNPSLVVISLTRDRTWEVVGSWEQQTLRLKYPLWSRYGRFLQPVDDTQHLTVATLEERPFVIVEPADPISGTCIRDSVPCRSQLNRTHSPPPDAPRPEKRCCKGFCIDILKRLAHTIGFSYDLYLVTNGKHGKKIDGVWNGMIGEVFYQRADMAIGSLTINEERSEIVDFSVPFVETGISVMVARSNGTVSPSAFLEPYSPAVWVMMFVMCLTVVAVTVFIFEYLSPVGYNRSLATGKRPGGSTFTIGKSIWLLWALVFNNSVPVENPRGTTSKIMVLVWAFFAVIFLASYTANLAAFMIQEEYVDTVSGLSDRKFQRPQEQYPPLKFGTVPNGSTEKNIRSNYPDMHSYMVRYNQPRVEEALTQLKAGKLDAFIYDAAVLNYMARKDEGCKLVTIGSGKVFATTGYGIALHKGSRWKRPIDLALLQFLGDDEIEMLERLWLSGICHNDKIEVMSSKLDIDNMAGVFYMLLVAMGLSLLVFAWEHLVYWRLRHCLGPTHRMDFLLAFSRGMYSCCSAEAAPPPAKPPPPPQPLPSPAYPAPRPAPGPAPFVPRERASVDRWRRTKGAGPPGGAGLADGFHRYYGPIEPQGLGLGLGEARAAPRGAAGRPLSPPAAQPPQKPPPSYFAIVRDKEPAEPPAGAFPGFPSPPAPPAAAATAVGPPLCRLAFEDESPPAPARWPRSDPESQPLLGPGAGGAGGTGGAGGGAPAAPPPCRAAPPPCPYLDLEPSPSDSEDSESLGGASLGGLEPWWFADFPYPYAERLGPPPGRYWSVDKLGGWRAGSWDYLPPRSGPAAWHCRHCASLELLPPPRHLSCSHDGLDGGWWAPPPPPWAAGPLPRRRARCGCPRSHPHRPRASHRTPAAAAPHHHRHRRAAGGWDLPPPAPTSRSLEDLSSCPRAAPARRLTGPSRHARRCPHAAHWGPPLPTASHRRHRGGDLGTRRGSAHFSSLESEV
Description for GluN1/2A: (§2) GluN1A, GluN2B, GluN2C, GluN2D, and GluN1/2A/2B cRNAs were mixed in a ratio of 1:1–3. 50 nl of the final cRNA mixture was microinjected (40–70 ng total) into the oocyte cytoplasm. Oocytes were incubated in ND‐96 solution at 18^◦C prior to electrophysiological recordings (1–3 days).
(§3) After obtaining a steady‐state response to different agonist applications, agonist plus 100 μM CNS4 or agonist plus 40 μM MgCl2 plus 100 μM CNS4 was applied. […] Data points were aligned by least‐square fit by third‐order polynomial equation (Y = B0 + B1*X +B2*X ^2 + B3*X ^3), except for GluN1/2B that needed a fourth‐order polynomial equation.
Description for GluN1/2D: as §2, §3

For the molecule `O=C(NC(=S)N1CCCCC1c1cccnc1)c1ccc(F)cc1` (stereo not drawn) [CNS4, 4‐fluoro‐N‐(2‐(pyridin‐3‐yl)piperidine‐1‐carbonothioyl)benzamide], the “inward current reversal potential” value is -72.52±0.85 mv at GluN1/2D (0.3 µM glutamate + 100 µM glycine + CNS4, absence of Mg2+, without CNS4 -84.35± 0.42, p<0.0001, n=6) and -77.88±0.87 mv at GluN1/2D (0.3 µM glutamate + 100 µM glycine + CNS4, presence of Mg2+, without CNS4 -88.29± 0.35, p<0.0001, n=6). Further, the “voltage dependence of effect on current amplitude” value on GluN1/2D (setting [3]) and at GluN1/2A (setting [3]) was “no voltage dependence effect” in each case. The reversal potential at GluN1/2D (agonist (100 µM glutamate + 100 µM glycine) + 40 µM MgCl2 + 100 µM CNS4, without CNS4 −75.8 ± 5.51, p > .05) is given as −72.58 ± 3.08 mv; on GluN1/2D (agonist (100 µM glutamate + 100 µM glycine) + 100 µM CNS4, absence of Mg^2+, agonist alone −54.2 ± 4.5, p > .05), −56.05 ± 5.8 mv; at GluN1/2A (agonist (100 µM glutamate + 100 µM glycine) + 40 µM MgCl2 + 100 µM CNS4, without CNS4 −20.06 ± 2.6, p > .05), −17.57 ± 2.0 mv; at GluN1/2A (agonist (100 µM glutamate + 100 µM glycine) + 100 µM CNS4, absence of Mg^2+, agonist alone −17.42 ± 2.2, p > .05), −17.54 ± 1.8 mv. Also, the “calcium signals compared to CNS4 alone treated cells” value in experiment [1] (100 µM CNS4 + 10 µM or higher concentrations of NMDA) is given as “significantly increased calcium signals”. Also, the “Ca^2+ signal, mean rfu” value in experiment [1] (100 µM CNS4 + 100 µM GABA, p < .001 vs GABA alone (4196)) is given as 5124 rfu; in experiment [1] (100 µM CNS4 + 100 µM acetylcholine, p < .0001 vs acetylcholine alone (6222)), 8082 rfu; in experiment [1] (100 µM CNS4 + 100 µM glutamate + 50 µM MK801, p = .7757 vs glutamate + MK801 (7997)), 8359 rfu; in experiment [1] (100 µM CNS4 plus 300 µM NMDA, p < .0001 vs 300 µM NMDA alone (26711)), 38274 rfu. Further, the “Ca^2+ signal compared to background” value in experiment [1] (100 µM CNS4 in the presence of 0.3, 1, 3 µM NMDA) is on record as “did not increase Ca^2+ signal”. The “Ca^2+ signal without NMDA” value in experiment [1] (100 µM CNS4 in vehicle (HBSS) with no NMDA, Figure 6A) is reported as “no significant Ca^2+ signal”. The “more Ca^2+ signal compared to plain 300 µM NMDA” value in experiment [1] (100 µM CNS4 plus 300 µM NMDA) worked out at 43%. For the same molecule, the “Na^+ signal, mean rfu” value in experiment [2] (100 µM CNS4 + 0.3 µM NMDA, p < .0001 vs CNS4 with no NMDA (412544)) is given as 391591 rfu; in experiment [2] (100 µM CNS4 + glutamate + MK801, p = .0024 vs glutamate + MK801 ([…])) it was 519331 rfu; in experiment [2] (100 µM CNS4 alone, Figure 8B), 538755 rfu; in experiment [2] (100 µM CNS4 with no NMDA, Figure 7A), 412544 rfu. Moreover, in experiment [2] (100 µM CNS4 + 30–300 µM NMDA), the “Na^+ signal compared to 300 µM NMDA alone” value is recorded as “significantly higher Na^+ signal”.
